Literature values in US9353170B2, “Long-acting transient polymer conjugates of exendin” (SANOFI-AVENTIS DEUTSCHLAND GMBH, priority 2007, dated 2016).
Where no end group is shown, it is not given here. PEG 2 kDa = polyethylene glycol, 2 kDa

How the values were obtained:
normoglycaemic mice = conditions: subcutaneous injection
[1] = incubation in a human plasma model
db/db mice = conditions: 10 μg/mouse subcutaneously

## N-terminal PEGylation of GLP-1 with only PEG2kDa: GLP-1 N-terminally PEGylated with PEG2kDa (Lee et al. 2005) ({PEG 2 kDa}-HAEGTFTSDVSSYLEGQAAKEFIAWLVKGR; not fully specified (C-terminus); ends and bridges not checked; UniProt P01275 98-127, looked up)
Rat pancreas islets
  activity on stimulating insulin release: nearly completely abolished

## PEG40 kDa-FMS-exendin-4: transiently PEGylated Exendin-4 based on a traceless FMS-linker (Shechter et al.)
Normoglycaemic mice
  duration of maintained glucose lowering effect: 24 h
  glucose lowering effect: 30%

## [2-Sulfo-9-fluorenylmethoxycarbonyl]3-exendin-4 [FMS3-exendin-4]
[1]
  time at which cleavage is complete: 40 h
db/db mice
  sustained reduction in blood glucose: 50%
  time of return of blood glucose to baseline value: 45 h
